System: 966289-007-R4-J1-PDC complex spheroid viability
Experiment: Anticancer human tumor 966289-007-R4-J1-PDC patient-derived pancreatic adenocarcinoma cell line growth inhibition [GQUAD]
Settings: for IC50: curve of first compound; for viability, T/C: stronger effect = lower value; active = viability on the fitted dose curve at most 10% of control; inactive = the rest
Outline: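 Multi-cell-type spheroids of tumor cells with HUVEC and mesenchymal stem cells, treated with drug combinations. Concentrations descend in half-log steps from near clinical Cmax, or from 10 microM where Cmax is unknown; viability read-out.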

[1] = second compound 0.0316 µM, first compound 0.0316 µM
[2] = second compound 0.0316 µM, first compound 0.1 µM
[3] = second compound 0.0316 µM, first compound 0.316 µM
[4] = second compound 0.0316 µM, first compound 1 µM
[5] = second compound 0.0316 µM, first compound 3.16 µM
[6] = second compound 0.0316 µM, first compound 10 µM
[7] = second compound 0.1 µM, first compound 0.0316 µM
[8] = second compound 0.1 µM, first compound 0.1 µM
[9] = second compound 0.1 µM, first compound 0.316 µM
[10] = second compound 0.1 µM, first compound 1 µM
[11] = second compound 0.1 µM, first compound 3.16 µM
[12] = second compound 0.1 µM, first compound 10 µM
[13] = second compound 0.316 µM, first compound 0.0316 µM
[14] = second compound 0.316 µM, first compound 0.1 µM
[15] = second compound 0.316 µM, first compound 0.316 µM
[16] = second compound 0.316 µM, first compound 1 µM
[17] = second compound 0.316 µM, first compound 3.16 µM
[18] = second compound 0.316 µM, first compound 10 µM
[19] = second compound 1 µM, first compound 0.0316 µM
[20] = second compound 1 µM, first compound 0.1 µM
[21] = second compound 1 µM, first compound 0.316 µM
[22] = second compound 1 µM, first compound 1 µM
[23] = second compound 1 µM, first compound 3.16 µM
[24] = second compound 1 µM, first compound 10 µM
[25] = second compound 3.16 µM, first compound 0.0316 µM
[26] = second compound 3.16 µM, first compound 0.1 µM
[27] = second compound 3.16 µM, first compound 0.316 µM
[28] = second compound 3.16 µM, first compound 1 µM
[29] = second compound 3.16 µM, first compound 3.16 µM
[30] = second compound 3.16 µM, first compound 10 µM
[31] = second compound 10 µM, first compound 0.0316 µM
[32] = second compound 10 µM, first compound 0.1 µM
[33] = second compound 10 µM, first compound 0.316 µM
[34] = second compound 10 µM, first compound 1 µM
[35] = second compound 10 µM, first compound 3.16 µM
[36] = second compound 10 µM, first compound 10 µM
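Also: spheroids exposed to the agents for seven days before readout.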
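For viability, T/C in this document: percent viability relative to DMSO vehicle control wells taken as 100%.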

CC1COCCN1c1cc(C2(O)CC3CCC(C2)O3)c2cnn(-c3ccn[nH]3)c2n1 (centres undefined) + Cc1cnc(CNC(=O)c2c(=O)c3ccc(N4CCCN(C)CC4)nc3n3c2sc2ccccc23)cn1
< 31.6 nM: IC50 (second compound 0.0316 µM) | IC50 (second compound 0.1 µM) | IC50 (second compound 0.316 µM) | IC50 (second compound 1 µM) | IC50 (second compound 3.16 µM) | IC50 (second compound 10 µM)
inactive: viability, T/C [1] 17.9%
active: viability, T/C [2] 6.32% | viability, T/C [3] 6.87% | viability, T/C [4] 4.01% | viability, T/C [5] 4.28% | viability, T/C [6] 3.82% | viability, T/C [7] 8.59% | viability, T/C [8] 4.79% | viability, T/C [9] 5.61% | viability, T/C [10] 4.59% | viability, T/C [11] 3.77% | viability, T/C [12] 3.82% | viability, T/C [13] 6.96% | viability, T/C [14] 6.64% | viability, T/C [15] 7.05% | viability, T/C [16] 5.35% | viability, T/C [17] 4.24% | viability, T/C [18] 3.79% | viability, T/C [19] 5.69% | viability, T/C [20] 6.03% | viability, T/C [21] 7.24% | viability, T/C [22] 5.15% | viability, T/C [23] 5.42% | viability, T/C [24] 4.18% | viability, T/C [25] 4.9% | viability, T/C [26] 5.03% | viability, T/C [27] 5.23% | viability, T/C [28] 5.64% | viability, T/C [29] 5.02% | viability, T/C [30] 3.38% | viability, T/C [31] 0.04% | viability, T/C [32] 0.08% | viability, T/C [33] 0.11% | viability, T/C [34] 0.07% | viability, T/C [35] 0.15% | viability, T/C [36] 0.14%

O=C(NO)c1cnc(N2CCN(S(=O)(=O)c3ccc4ccccc4c3)CC2)nc1 + Cc1[nH]c2ccc(F)cc2c1-c1nc2c3cccnc3c3ncccc3c2[nH]1
1250 nM: IC50 (second compound 1 µM)
948 nM: IC50 (second compound 10 µM)
inactive: viability, T/C [1] 100% | viability, T/C [2] 96.8% | viability, T/C [3] 112% | viability, T/C [4] 23.5% | viability, T/C [7] 104% | viability, T/C [8] 97.4% | viability, T/C [9] 110% | viability, T/C [10] 41% | viability, T/C [13] 103% | viability, T/C [14] 97.2% | viability, T/C [15] 110% | viability, T/C [16] 57.5% | viability, T/C [19] 94.7% | viability, T/C [20] 102% | viability, T/C [21] 115% | viability, T/C [22] 61.3% | viability, T/C [25] 101% | viability, T/C [26] 111% | viability, T/C [27] 111% | viability, T/C [28] 46.9% | viability, T/C [31] 112% | viability, T/C [32] 104% | viability, T/C [33] 115% | viability, T/C [34] 47.1%
943 nM: IC50 (second compound 3.16 µM)
847 nM: IC50 (second compound 0.1 µM)
1170 nM: IC50 (second compound 0.316 µM)
682 nM: IC50 (second compound 0.0316 µM)
active: viability, T/C [5] 1.82% | viability, T/C [6] 0.49% | viability, T/C [11] 1.2% | viability, T/C [12] 0.14% | viability, T/C [17] 3.37% | viability, T/C [18] 0.12% | viability, T/C [23] 4.62% | viability, T/C [24] 0.3% | viability, T/C [29] 3.24% | viability, T/C [30] 0.41% | viability, T/C [35] 2.05% | viability, T/C [36] 0.25%

Reference: PubChem BioAssay AID2060488 (Molecular Pharmacology Branch, DTP, NCI, 2025)
